Laboratory results as given in PubChem BioAssay AID1033 (Sanford-Burnham Center for Chemical Genomics, 2008).
Calls of active or inactive are those of the source. No rule for the calls is given here.

target: Chaperone protein DnaK (Escherichia coli (strain K12)) (UniProt P0A6Y8); assay: E. coli DnaK SBD ligand binding – biophysical, NMR, chaperone (AID 1033); conditions: Purified DnaK SBD
Sequence (P0A6Y8 whole entry, looked up): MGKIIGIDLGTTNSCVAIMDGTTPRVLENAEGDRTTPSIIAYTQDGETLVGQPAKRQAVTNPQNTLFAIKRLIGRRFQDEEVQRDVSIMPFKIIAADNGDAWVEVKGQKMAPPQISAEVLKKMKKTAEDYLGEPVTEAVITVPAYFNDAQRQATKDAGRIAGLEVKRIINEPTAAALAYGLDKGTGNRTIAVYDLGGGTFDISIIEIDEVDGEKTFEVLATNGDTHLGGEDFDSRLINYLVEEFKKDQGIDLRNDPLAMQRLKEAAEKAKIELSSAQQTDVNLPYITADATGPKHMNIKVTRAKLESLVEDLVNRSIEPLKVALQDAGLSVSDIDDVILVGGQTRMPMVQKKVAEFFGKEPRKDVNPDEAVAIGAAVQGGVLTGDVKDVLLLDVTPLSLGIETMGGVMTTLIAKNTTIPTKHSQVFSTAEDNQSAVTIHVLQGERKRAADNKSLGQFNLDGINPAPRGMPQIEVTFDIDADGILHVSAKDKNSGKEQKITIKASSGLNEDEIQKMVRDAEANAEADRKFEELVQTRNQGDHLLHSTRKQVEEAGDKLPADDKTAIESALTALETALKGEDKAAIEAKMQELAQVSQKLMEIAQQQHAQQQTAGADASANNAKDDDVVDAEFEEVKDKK

| Compound | Kd |
| --- | --- |
| Nc1nc(SCc2ccc3c(c2)OCCO3)n[nH]1 | > 4 mM (inactive) |
| CNC(=O)N1CCN(C(=O)NC)CC1 | > 4 mM (inactive) |
| Cc1occc1C(=O)Nc1nnc(-c2ccncc2)s1 | > 4 mM (inactive) |
| COc1ccc2ccc(=O)oc2c1 | > 4 mM (inactive) |
| Nc1cccc(F)c1-c1ncon1 | > 4 mM (inactive) |
| CC(CCC(=O)O)[C@H]1CCC2C3C(C[C@H](O)[C@@]21C)[C@@]1(C)CC[C@@H](O)C[C@H]1C[C@H]3O (stereo partly drawn) | > 4 mM (inactive) |
| CC1CCN(C(=O)c2ccc(NS(C)(=O)=O)cc2)CC1 | > 4 mM (inactive) |
| O=C(O)CN1CCN(C2CCCC2)CC1 | > 4 mM (inactive) |
| Cc1ccc(C2NS(=O)(=O)N=C2N)cc1 (stereo not drawn) | > 4 mM (inactive) |
| Cc1cc(C(=O)Nc2ccccn2)no1 | > 4 mM (inactive) |
| Cc1ccc2c(c1)CC[C@H]1CC(=O)CC[C@]21C | > 4 mM (inactive) |
| Nc1cc(=O)[nH]c(=S)n1-c1cccc(C(F)(F)F)c1 | > 4 mM (inactive) |
| COc1ccc2c(c1)OC1(O)COc3cc(OC)c(OC)cc3C1=C2 (stereo not drawn) | > 4 mM (inactive) |
| COC1C=CC23c4cc5c(cc4CN(CC2O)[C@@H]3C1)OCO5 (stereo partly drawn) | > 4 mM (inactive) |
| CN1CCC(NC(=O)c2ccccc2[N+](=O)[O-])CC1 | > 4 mM (inactive) |
| Cc1nc(CC(=O)O)c(-c2ccccc2)s1 | > 4 mM (inactive) |
| C=C1[C@H]2CC[C@@]3(C)[C@H](c4ccoc4)OC(=O)C[C@]13O[C@H]1C[C@H](O)C(C)(C)[C@H](CC(=O)OC)[C@]12C | > 4 mM (inactive) |
| CCOC(=O)c1c(C)cc(O)cc1O | > 4 mM (inactive) |
| O=C(O)CCC(=O)Nc1nnc(C(F)(F)F)s1 | > 4 mM (inactive) |
| O=C(O)CCc1ccc2c(c1)OCO2 | > 4 mM (inactive) |
| CN1CCC(NC(=O)c2cnccn2)CC1 | > 4 mM (inactive) |
| Cn1ncc(NC(=O)Nc2ccc(F)cc2F)c1C(N)=O | > 4 mM (inactive) |

| Compound | Kd |
| --- | --- |
| NC(=O)c1ccccc1NC(=O)C1CC1 | > 4 mM (inactive) |
| S=C(c1ccc(N2CCOCC2)cc1)N1CCCCC1 | > 4 mM (inactive) |
| Nc1nnc(SCc2ccc(F)cc2Cl)s1 | > 4 mM (inactive) |
| CCOC(=O)c1cc2ccccc2oc1=O | > 4 mM (inactive) |
| CSc1cccc(NC(=O)c2c(Cl)cnn2C)c1 | > 4 mM (inactive) |
| O=C1CSC(=O)N1CN1CCCC1 | > 4 mM (inactive) |
| CC(=O)N1N=C(N)SC1c1cccnc1 (stereo not drawn) | > 4 mM (inactive) |
| O=C(/C=C1\SC(=O)NC1=O)NCc1ccccc1 | > 4 mM (inactive) |
| O=C(Nc1cccc2cccnc12)c1cccnc1 | > 4 mM (inactive) |
| COC(=O)Nc1nnc(-c2ccncc2)s1 | > 4 mM (inactive) |
| COC(=O)[C@]1(C)CCC[C@]2(C)c3ccc(C(C)C)cc3C(=O)CC12 (stereo partly drawn) | > 4 mM (inactive) |
| CS(=O)(=O)N1CCN(C(=O)c2ccccc2F)CC1 | > 4 mM (inactive) |
| Cn1c(=O)c2[nH]cnc2n(C)c1=O | > 4 mM (inactive) |
| O=C(O)C1NCCc2ccccc21 (stereo not drawn) | > 4 mM (inactive) |
| Oc1ccc(C(=S)N2CCOCC2)cc1 | > 4 mM (inactive) |
| O=C(O)C1CC(C2CCCCN2)CN2CCCCC12 (stereo not drawn) | > 4 mM (inactive) |
| Nc1nc(N)nc(N2C(=O)c3ccccc3C2=O)n1 | > 4 mM (inactive) |
| C=CCc1ccc(OC(=O)c2ccccc2)c(OC)c1 | > 4 mM (inactive) |
| CC(=O)c1c(C)n([O-])c2ccccc2[n+]1=O | > 4 mM (inactive) |
| CN(C)c1nc(N2CCOCC2)c2cnn(C)c2n1 | > 4 mM (inactive) |
| Cc1ccc(N2C(=O)CC(=O)NC2=O)cc1 | > 4 mM (inactive) |
| Cc1occc1C(=O)NC1CCN(C)CC1 | > 4 mM (inactive) |

| Compound | Kd |
| --- | --- |
| C(=Nn1cnnc1)c1ccccc1 | > 4 mM (inactive) |
| NC1CN2CCC1CC2 (stereo not drawn) | > 4 mM (inactive) |
| O=C(NCc1ccccc1)c1cnsn1 | > 4 mM (inactive) |
| CC(=O)N=c1cccc(NC(C)=O)n1O | > 4 mM (inactive) |
| O=C(Nc1cccc(O)c1)c1ccccc1 | > 4 mM (inactive) |
| c1ccc(-c2nnc3sc(-c4ccncc4)nn23)cc1 | > 4 mM (inactive) |
| CCC(=O)NC(=S)Nc1ccc(N2CCOCC2)cc1 | > 4 mM (inactive) |
| NC1=NC(=O)/C(=C/c2cccc([N+](=O)[O-])c2)S1 | > 4 mM (inactive) |
| O=C(Nc1cccc(Cl)c1)c1ccncc1 | > 4 mM (inactive) |
| OCc1ccccc1CN1CCOCC1 | > 4 mM (inactive) |
| Cn1cnc2cc(NC(=O)c3ccco3)ccc21 | > 4 mM (inactive) |
| CCOC(=O)c1c[nH]c2c(F)cccc2c1=O | > 4 mM (inactive) |
| COc1ccc(-c2cc(=O)c3cc(OC)ccc3o2)cc1 | > 4 mM (inactive) |
| CN(C)C(=O)CSc1cccc2cccnc12 | > 4 mM (inactive) |
| O=c1[nH]cc(S(=O)(=O)N2CCc3ccccc32)c(=O)[nH]1 | > 4 mM (inactive) |
| N[C@@H](Cc1ccc(O)c(O)c1)C(=O)O | > 4 mM (inactive) |
| Nc1cc(=O)[nH]c(=O)n1-c1ccccc1 | > 4 mM (inactive) |
| COC(=O)N1CCN(c2ccc(C(C)=O)cc2)CC1 | > 4 mM (inactive) |
| COc1ccc2c(c1)C(NC(C)=O)C(=O)N2C (stereo not drawn) | > 4 mM (inactive) |
| Cc1nn2c(=O)/c(=C/c3cccc(F)c3)sc2nc1=O | > 4 mM (inactive) |
| CN1CCC(N2CCCC(C(N)=O)C2)CC1 (stereo not drawn) | > 4 mM (inactive) |
| O=C(Nc1nc2c(s1)CCCC2)c1cccnc1 | > 4 mM (inactive) |

| Compound | Kd |
| --- | --- |
| Cc1occc1C(=O)Nc1cc(C(C)(C)C)on1 | > 4 mM (inactive) |
| O=C1OCCC1Sc1nc2ccccc2c(=O)[nH]1 (stereo not drawn) | > 4 mM (inactive) |
| c1n[nH]cc1-c1cn[nH]c1 | > 4 mM (inactive) |
| CSc1nc2[nH]ncc2c(=O)[nH]1 | > 4 mM (inactive) |
| O=C1CCC(c2cccs2)=NN1 | > 4 mM (inactive) |
| CC(C)=CCc1c(O)cc(C)oc1=O | > 4 mM (inactive) |
| O=C(O)CCN1CCOCC1 | > 4 mM (inactive) |
| CN1CCn2c1nc(N1CCCCC1)nc2=O | > 4 mM (inactive) |
| CC1(C)Cc2nc3n[nH]c(N)c3cc2CO1 | > 4 mM (inactive) |
| CSc1nnc2[nH]c(=O)cc(N)n12 | > 4 mM (inactive) |
| CC(=O)Nc1ccc(C(=O)N2CCOCC2)cc1Cl | > 4 mM (inactive) |
| Nc1ccc(CN2CCS(=O)(=O)CC2)cc1 | > 4 mM (inactive) |
| Nc1nc2ncc(CNc3ccc(C(=O)N[C@@H](CCC(=O)O)C(=O)O)cc3)nc2c(=O)[nH]1 | > 4 mM (inactive) |
| Nc1ccnc(C(=O)O)c1 | > 4 mM (inactive) |
| Cc1nc(-c2cc(CO)no2)cs1 | > 4 mM (inactive) |
| CCCn1cnn2c(=O)cc(C)nc12 | > 4 mM (inactive) |
| COc1ccc2c(c1)OCC(Cc1ccc(OC)c(O)c1)C2=O (stereo not drawn) | > 4 mM (inactive) |
| O=C(O)c1csc(-c2cccs2)n1 | > 4 mM (inactive) |
| COc1ccc(C(=O)CC(=O)O)c2c1C=CC(C)(C)O2 | > 4 mM (inactive) |
| CC(=O)Nc1c(C)n(C)n(-c2ccccc2)c1=O | > 4 mM (inactive) |
| CCc1cc(=O)[nH]c(SCC(=O)NCCOC)n1 | > 4 mM (inactive) |
| Cn1c(=O)n(CC(=O)Nc2cccnc2)c2ccccc21 | > 4 mM (inactive) |
